Data taken from ChEMBL document CHEMBL1201862, “PubChem BioAssay data set” (2004).
Active and inactive are the calls of the source.

Columns and labels:
[1] = target: Voltage-dependent T-type calcium channel subunit alpha-1H (Homo sapiens, UniProt O95180); type: functional;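 also: channel activity triggered by adding a high calcium stimulation buffer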
[2] = target: T1, Protein skinhead-1 (Caenorhabditis elegans, UniProt P34707); type: functional
T1 sequence (P34707 whole entry): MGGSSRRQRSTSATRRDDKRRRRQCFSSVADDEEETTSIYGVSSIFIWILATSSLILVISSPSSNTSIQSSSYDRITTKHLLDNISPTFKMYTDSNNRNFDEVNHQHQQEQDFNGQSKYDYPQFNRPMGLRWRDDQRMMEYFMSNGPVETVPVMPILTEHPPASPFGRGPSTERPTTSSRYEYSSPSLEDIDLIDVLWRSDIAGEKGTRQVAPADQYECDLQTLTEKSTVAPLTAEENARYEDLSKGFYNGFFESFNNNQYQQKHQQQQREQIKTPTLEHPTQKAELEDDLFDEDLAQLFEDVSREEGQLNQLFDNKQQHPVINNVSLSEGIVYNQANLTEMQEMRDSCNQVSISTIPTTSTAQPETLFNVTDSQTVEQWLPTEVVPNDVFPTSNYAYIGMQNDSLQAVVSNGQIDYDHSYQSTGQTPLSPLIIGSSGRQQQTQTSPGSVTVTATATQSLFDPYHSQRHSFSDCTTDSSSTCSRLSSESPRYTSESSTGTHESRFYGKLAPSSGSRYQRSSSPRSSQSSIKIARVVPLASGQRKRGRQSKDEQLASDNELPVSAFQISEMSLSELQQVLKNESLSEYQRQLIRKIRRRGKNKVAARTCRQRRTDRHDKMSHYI

[3] = target: Peroxisome proliferator-activated receptor gamma/Nuclear receptor corepressor 2 (Homo sapiens, UniProt P37231+Q9Y618); type: functional
[4] = target: Photoreceptor-specific nuclear receptor (Homo sapiens, UniProt Q9Y5X4); type: functional;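 also: potency for compounds that break the NR2E3 corepressor complex and count as activators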
Chain of Photoreceptor-specific nuclear receptor (Q9Y5X4 whole entry, the tested form may be a part): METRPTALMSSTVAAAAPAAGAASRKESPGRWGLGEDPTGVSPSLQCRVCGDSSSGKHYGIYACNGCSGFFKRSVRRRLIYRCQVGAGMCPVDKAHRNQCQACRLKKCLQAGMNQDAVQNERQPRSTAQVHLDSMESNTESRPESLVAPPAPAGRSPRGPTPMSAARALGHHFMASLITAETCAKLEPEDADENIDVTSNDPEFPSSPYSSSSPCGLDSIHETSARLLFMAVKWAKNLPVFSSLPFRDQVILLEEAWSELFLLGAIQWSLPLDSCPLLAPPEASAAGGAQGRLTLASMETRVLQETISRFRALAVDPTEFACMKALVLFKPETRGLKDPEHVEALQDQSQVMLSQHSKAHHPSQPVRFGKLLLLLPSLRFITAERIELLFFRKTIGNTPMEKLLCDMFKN

[5] = target: T2, Carboxy-terminal domain RNA polymerase II polypeptide A small phosphatase 1 (Homo sapiens, UniProt Q9GZU7); experiment: CTDSP1 inhibitors, concentration-response, biochemical, absorbance readout, ultra-high-throughput screen actives (AID 540297); type: functional
T2 sequence (Q9GZU7 whole entry): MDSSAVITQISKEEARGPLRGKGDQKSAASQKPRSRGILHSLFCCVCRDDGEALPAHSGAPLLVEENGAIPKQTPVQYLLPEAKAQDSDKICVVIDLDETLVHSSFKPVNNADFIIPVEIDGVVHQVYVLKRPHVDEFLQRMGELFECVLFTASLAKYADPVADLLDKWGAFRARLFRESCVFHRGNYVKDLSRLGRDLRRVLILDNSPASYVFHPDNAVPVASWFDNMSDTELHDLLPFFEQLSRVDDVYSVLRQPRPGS

[6] = target: T3, DNA dC->dU-editing enzyme APOBEC-3G (Homo sapiens, UniProt Q9HC16); type: functional
T3 sequence (Q9HC16 whole entry): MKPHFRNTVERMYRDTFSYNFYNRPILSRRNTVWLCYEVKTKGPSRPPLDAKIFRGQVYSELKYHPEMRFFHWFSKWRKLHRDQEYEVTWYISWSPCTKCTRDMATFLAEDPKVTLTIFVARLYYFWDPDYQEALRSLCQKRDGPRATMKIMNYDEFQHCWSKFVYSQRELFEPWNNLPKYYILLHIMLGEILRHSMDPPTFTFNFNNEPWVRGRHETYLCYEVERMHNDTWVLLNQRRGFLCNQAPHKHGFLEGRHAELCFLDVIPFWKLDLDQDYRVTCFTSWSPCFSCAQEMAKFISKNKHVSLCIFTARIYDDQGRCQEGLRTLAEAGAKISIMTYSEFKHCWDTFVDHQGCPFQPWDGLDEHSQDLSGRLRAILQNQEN

[7] = target: DNA dC->dU-editing enzyme APOBEC-3A (Homo sapiens, UniProt P31941); experiment: Dose Response confirmation of small molecule APOBEC3A DNA Deaminase Inhibitors via a fluorescence-based single-stranded DNA deaminase assay. [Related pubchem assays (depositor defined):AID493011, AID493024]; type: functional
Chain of DNA dC->dU-editing enzyme APOBEC-3A (P31941 whole entry): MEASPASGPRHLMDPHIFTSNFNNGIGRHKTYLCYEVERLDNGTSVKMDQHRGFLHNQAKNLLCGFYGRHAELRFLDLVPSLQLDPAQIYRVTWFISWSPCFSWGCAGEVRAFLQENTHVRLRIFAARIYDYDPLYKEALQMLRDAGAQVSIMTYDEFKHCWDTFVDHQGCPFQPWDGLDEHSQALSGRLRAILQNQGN

[8] = target: T3, DNA dC->dU-editing enzyme APOBEC-3G; experiment: Dose Response confirmation of small molecule APOBEC3G DNA Deaminase Inhibitors via a fluorescence-based single-stranded DNA deaminase assay. [Related pubchem assays (depositor defined):AID493012, AID493028]; type: functional
[9] = target: T4, Luciferin 4-monooxygenase (Photinus pyralis, UniProt P08659); experiment: inhibition of purified Photinus pyralis luciferase – biochemical, luminescence, dose response (AID 1891)
T4 sequence (P08659 whole entry): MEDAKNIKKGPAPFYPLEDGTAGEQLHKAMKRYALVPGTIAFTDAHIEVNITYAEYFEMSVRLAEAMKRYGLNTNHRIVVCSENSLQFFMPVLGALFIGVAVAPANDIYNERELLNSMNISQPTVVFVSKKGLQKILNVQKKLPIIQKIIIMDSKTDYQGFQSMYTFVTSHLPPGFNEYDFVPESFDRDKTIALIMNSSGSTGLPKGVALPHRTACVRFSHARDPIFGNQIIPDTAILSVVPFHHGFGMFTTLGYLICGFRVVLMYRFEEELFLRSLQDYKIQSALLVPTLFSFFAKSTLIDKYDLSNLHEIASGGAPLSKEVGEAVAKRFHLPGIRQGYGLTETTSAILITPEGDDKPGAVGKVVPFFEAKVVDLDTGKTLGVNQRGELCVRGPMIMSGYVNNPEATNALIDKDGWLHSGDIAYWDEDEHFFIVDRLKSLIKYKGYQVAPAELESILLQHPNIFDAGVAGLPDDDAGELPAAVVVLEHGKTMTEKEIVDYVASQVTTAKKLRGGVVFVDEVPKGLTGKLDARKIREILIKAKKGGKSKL

[10] = target: T4, Luciferin 4-monooxygenase; experiment: Counter Screen for Luciferase-based Assay Positives. [Related pubchem assays: 620, 618, 411 ]
[11] = Luminescence Cell-Based Dose Confirmation HTS to Identify Inhibitors of Platelet Dense Granule Release. [Related pubchem assays: 1663 (Primary HTS), 1678 (Summary of Project)]; type: functional
[12] = tested on: HT-1080; experiment: HT1080 cell viability loss – fluorescence readout (AID 620); type: functional, cell-based; details: Homo sapiens
[13] = target: Genome polyprotein (dengue virus type 2, UniProt P29990); experiment: flavivirus cap methylation enzyme inhibition – biochemical, confirmation dose response, primary screen (AID 588689); type: functional
[14] = target: T5, Ubiquitin-conjugating enzyme E2 N (Homo sapiens, UniProt P61088); type: functional;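 also: Dose-response confirmation in a TR-FRET assay detecting UBC13-driven polyubiquitin chain formation, inhibition measured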
T5 sequence (P61088 whole entry): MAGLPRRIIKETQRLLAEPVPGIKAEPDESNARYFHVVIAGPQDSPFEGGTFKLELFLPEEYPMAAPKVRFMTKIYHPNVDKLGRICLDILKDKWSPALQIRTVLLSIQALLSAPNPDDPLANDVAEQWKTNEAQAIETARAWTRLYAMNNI

[15] = target: T6, SUMO-activating enzyme (Homo sapiens, UniProt Q9UBT2); experiment: blockers of SAE1/SAE2–UBC9 SUMO transfer – biochemical, HTRF, uHTS, primary screen (AID 2006); type: protein-complex assay
T6 sequence (Q9UBE0 whole entry): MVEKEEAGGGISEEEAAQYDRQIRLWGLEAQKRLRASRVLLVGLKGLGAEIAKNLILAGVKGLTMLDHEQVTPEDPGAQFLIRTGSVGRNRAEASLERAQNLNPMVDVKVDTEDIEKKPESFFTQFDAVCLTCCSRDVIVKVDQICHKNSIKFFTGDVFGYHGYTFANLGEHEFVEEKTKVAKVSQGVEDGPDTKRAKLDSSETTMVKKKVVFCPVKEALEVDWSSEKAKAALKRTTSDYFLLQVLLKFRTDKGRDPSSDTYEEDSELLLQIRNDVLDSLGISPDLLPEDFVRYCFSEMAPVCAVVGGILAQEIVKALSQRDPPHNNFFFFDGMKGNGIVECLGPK
T6 sequence (Q9UBT2 whole entry): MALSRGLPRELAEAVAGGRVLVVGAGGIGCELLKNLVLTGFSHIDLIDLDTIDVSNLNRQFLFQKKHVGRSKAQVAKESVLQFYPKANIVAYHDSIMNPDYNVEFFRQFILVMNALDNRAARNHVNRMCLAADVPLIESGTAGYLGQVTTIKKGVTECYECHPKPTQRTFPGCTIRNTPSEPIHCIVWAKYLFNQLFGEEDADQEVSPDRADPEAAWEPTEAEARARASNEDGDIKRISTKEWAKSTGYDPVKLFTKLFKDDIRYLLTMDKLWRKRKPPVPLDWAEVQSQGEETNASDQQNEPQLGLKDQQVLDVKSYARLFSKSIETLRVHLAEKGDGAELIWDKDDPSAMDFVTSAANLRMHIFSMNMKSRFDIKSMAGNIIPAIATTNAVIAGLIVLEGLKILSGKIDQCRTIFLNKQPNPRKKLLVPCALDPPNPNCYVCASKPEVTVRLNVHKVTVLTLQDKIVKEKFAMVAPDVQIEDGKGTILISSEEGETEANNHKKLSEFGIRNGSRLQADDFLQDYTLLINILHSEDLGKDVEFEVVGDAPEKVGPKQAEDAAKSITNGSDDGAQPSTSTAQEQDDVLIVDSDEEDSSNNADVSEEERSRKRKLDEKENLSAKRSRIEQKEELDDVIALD

[16] = tested on: INS1; experiment: INS-1E survival protection against cytokine death – cell-based, luminescence, retest, dose response (AID 449756); type: functional; details: Rattus norvegicus;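 also: cell death triggered by IL-1 beta plus TNF-alpha plus IFN-gamma mixture; protective hits raise ATP signal compared with cytokine alone wells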
[17] = tested on: Streptococcus sp. 'group A'; experiment: Streptococcus pyogenes SK(-)GAS viability under kanamycin – luminescence, BacTiterGlo, confirmation, counter-screen for streptokinase expression inhibitor project, dose response (AID 1900); type: functional, organism-based
[18] = tested on: Streptococcus; experiment: GAS UMAA2166 growth inhibition – luminescence, BacTiterGlo, counter-screen for streptokinase expression inhibitor project, dose response (AID 1915); type: functional, organism-based;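 also: potency for reduction of bacterial viability or growth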
[19] = cells; type: functional, cell-based
[20] = cells; type: functional, cell-based; remark: listed apart in the source
[21] = target: T6, SUMO-activating enzyme; experiment: blockers of UBC9-mediated SUMO conjugation – biochemical, AlphaScreen, SUMOylation inhibitor project, confirmation (AID 2018); type: functional
[22] = target: FAD-linked sulfhydryl oxidase ALR (Homo sapiens, UniProt P55789); experiment: ALR-catalysed DTT oxidation blockers – biochemical, H2O2 detection, luminescence, cherry-pick, dose response (AID 493248)
[23] = tested on: HEK293; experiment: EBV LMP1 TES2 canonical NF-kB signalling blockers – cell-based, HEK293, luciferase, cherry-pick, dose response (AID 588343); type: functional; details: Homo sapiens
[24] = Trypanosoma cruzi growth suppression in host cells – NIH3T3 host cells, beta-gal luminescence, confirmation (AID 2044); type: functional, cell-based;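 also: intracellular parasites grown in NIH/3T3 mouse fibroblasts as host cells; luminescent beta-galactosidase reporter signal from transgenic T. cruzi replicating inside host cells; inhibitors lower the luminescence signal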
[25] = Luminescence Cell-Based Dose Retest to Confirm Inhibitors of Cancer Stem Cells. [Related pubchem assays (depositor defined):AID2717, AID2721]; type: functional; details: Homo sapiens
[26] = NIH3T3 cell viability loss – ATP luminescence, mouse fibroblasts, counter-screen, dose response (AID 2010); type: functional, cell-based;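 also: cells exposed to compound for about 90 hours before reading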
[27] = viability of uninfected HEp-2 cells – cell-based, HTS, cytotoxicity control for RSV inhibitor project, dose response (AID 2410); type: functional; details: human respiratory syncytial virus
[28] = target: T7, Microphthalmia-associated transcription factor (Homo sapiens, UniProt O75030); experiment: reducers of TRPM1 reporter luminescence, concentration series – cell-based, SK-MEL-5, cherry-picked, set 3, MITF inhibitor project, dose response (AID 493073); type: functional;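 also: SK-MEL-5 melanoma cells with luciferase driven by the MITF target TRPM1 promoter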
T7 sequence (O75030 whole entry): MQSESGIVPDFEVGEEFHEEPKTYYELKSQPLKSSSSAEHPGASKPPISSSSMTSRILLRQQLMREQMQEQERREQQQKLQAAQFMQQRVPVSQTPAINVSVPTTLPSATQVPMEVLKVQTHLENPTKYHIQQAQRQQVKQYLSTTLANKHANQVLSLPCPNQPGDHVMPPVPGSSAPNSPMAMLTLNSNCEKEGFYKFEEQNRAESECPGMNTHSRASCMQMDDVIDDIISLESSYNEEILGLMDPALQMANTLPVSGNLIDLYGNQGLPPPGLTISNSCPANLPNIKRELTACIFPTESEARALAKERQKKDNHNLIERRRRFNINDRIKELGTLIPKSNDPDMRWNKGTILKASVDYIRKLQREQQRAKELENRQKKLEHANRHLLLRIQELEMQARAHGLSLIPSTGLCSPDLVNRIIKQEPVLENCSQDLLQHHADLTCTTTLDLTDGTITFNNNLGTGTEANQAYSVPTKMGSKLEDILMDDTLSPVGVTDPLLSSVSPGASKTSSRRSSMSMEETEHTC

[29] = Luminescence Cell-Based Dose Response HTS to Identify Inhibitors of 5'UTR Stem-Loop Driven Prion Protein mRNA Translation in H4 Neuroglioblastoma Cells. [Related pubchem assays: 1827 (Project Summary), 1813 (Primary HTS)]; type: functional
[30] = alpha-synuclein stem-loop luciferase translation blockers – H4 neuroglioma cells, luminescence, confirmation (AID 1988); type: functional, cell-based
[31] = luciferase reporter signal suppression in cells – H4 neuroglioma cells, luminescence, dose response (AID 1990); type: functional, cell-based
[32] = target: Large T antigen (Simian virus 40, UniProt P03070); type: functional, Betapolyomavirus macacae;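 also: Confirmatory-stage PubChem screen for compounds that inhibit SV40 T antigen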
[33] = target: T8, Cytochrome P450 1A2 (Homo sapiens, UniProt P05177);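 also: PubChem cytochrome P450 panel assay, CYP1A2 panel member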
T8 sequence (P05177 whole entry): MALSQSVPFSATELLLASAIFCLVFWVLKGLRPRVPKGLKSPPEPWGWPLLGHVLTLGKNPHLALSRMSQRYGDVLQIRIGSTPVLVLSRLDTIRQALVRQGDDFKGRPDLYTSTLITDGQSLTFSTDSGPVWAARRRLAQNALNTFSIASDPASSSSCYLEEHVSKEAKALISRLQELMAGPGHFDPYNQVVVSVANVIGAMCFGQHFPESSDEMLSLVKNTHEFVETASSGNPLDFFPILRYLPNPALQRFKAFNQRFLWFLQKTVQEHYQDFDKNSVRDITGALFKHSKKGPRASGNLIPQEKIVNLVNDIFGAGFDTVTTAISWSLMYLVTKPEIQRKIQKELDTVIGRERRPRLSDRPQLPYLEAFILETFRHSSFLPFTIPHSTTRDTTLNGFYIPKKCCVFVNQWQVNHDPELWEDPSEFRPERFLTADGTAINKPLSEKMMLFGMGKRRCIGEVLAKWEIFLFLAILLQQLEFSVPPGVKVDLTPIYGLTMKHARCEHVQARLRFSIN

[34] = target: Cytochrome P450 2C9 (Homo sapiens, UniProt P11712)

Chain of Voltage-dependent T-type calcium channel subunit alpha-1H (O95180 whole entry): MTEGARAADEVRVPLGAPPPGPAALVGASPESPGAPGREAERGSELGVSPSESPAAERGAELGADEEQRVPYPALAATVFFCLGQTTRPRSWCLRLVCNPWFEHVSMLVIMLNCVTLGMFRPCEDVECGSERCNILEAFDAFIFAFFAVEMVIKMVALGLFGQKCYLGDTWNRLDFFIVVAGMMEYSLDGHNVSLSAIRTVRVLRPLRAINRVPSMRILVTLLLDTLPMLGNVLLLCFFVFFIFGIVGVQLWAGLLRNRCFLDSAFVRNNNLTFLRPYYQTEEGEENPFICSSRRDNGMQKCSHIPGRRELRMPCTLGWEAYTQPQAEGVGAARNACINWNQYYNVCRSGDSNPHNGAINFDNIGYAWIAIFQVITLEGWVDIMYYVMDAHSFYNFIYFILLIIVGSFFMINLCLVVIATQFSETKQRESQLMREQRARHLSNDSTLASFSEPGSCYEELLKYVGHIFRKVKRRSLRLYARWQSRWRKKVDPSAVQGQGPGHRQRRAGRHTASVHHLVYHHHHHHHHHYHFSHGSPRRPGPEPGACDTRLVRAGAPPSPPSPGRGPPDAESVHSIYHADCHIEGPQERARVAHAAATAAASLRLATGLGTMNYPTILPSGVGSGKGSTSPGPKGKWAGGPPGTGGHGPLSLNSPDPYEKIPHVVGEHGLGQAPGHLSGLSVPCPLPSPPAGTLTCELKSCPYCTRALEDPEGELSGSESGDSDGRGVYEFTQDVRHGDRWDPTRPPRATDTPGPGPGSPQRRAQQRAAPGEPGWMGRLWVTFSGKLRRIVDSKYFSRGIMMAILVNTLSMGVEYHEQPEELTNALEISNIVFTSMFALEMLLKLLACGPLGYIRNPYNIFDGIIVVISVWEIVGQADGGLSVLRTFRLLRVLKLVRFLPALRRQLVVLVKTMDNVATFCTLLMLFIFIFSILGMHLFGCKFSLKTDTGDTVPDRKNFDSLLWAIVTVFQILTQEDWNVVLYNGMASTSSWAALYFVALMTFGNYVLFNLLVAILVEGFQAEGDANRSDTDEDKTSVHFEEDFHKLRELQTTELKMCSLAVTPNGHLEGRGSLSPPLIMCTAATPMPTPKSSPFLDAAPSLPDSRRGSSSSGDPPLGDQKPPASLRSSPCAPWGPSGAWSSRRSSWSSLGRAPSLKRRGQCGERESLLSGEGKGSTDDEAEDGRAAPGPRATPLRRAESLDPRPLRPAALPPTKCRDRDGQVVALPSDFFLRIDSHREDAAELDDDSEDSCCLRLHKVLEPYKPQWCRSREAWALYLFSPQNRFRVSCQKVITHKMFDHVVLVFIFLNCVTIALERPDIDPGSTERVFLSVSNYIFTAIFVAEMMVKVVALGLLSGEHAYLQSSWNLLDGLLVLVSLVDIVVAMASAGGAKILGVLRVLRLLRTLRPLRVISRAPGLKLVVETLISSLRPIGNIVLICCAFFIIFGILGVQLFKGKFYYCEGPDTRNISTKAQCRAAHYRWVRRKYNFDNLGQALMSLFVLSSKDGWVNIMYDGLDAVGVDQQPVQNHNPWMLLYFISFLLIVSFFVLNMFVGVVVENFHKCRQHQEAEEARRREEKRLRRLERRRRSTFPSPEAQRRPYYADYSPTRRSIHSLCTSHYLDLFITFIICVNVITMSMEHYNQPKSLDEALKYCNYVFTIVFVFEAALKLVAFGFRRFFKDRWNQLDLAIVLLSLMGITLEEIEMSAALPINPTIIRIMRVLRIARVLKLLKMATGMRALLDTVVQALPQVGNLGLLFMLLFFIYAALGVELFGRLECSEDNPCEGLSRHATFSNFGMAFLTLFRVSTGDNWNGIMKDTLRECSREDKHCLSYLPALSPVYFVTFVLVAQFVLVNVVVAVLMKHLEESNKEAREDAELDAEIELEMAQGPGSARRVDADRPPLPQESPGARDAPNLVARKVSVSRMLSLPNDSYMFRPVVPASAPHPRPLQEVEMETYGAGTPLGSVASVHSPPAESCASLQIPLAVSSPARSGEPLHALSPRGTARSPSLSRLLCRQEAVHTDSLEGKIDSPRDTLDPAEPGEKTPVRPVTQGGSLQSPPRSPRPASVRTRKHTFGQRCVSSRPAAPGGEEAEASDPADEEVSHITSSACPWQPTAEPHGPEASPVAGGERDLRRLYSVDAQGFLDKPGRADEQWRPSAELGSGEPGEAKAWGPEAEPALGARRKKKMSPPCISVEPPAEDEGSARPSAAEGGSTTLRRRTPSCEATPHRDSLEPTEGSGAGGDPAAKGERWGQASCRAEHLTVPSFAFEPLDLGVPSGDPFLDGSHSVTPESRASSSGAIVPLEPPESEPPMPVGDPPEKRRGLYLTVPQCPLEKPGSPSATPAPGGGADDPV

## Cc1ccc(C)c(N2CCN(C(c3ccc(N(C)C)cc3)c3nnnn3C(C)(C)C)CC2)c1 (centres undefined)
[1]
  EC50: 4.2 µM (active)
[2]
  IC50: > 100 µM (inactive)

## CCC(Sc1nc(O)c(C#N)c(-c2ccccc2)n1)C(=O)Nc1cc(C)on1 (centres undefined)
[3]
  IC50: 4.41 µM (active)
[4]
  IC50: > 39.8 µM (not active)

## CC[N+]1(CC)CC2CCC(C)(C1)C2(C)C (centres undefined)
[5]
  IC50: 12.1 µM (active)
[6]
  IC50: 3.3 µM (active)
[7]
  IC50: 2.28 µM (active)

## Cc1noc(C)c1CSc1nc2cc(S(=O)(=O)N3CCOCC3)ccc2o1
[8]
  IC50: 50.7 µM (active)

## CC(C(=O)N1c2ccccc2CCc2ccccc21)n1nnc(-c2ccc(N(C)C)cc2)n1 (centres undefined)
[1]
  EC50: 4.2 µM (active)

## COc1ccc(NC(=O)c2cc3ccccn3n2)cc1
[9]
  EC50: 31.4 µM (active)
[10]
  EC50: 3.55 µM (active)
[11]
  EC50: > 112 µM (not active)
[12]
  EC50: 29.9 µM (active)

## CC(C)CSC1=NSC2=NC(=O)/C(=C\c3ccccc3)C(=N)N12
[13]
  IC50: 51.8 µM (active)

## CCOCCCNC(=O)c1cn(CC(C)C)c(=O)c2c1c1ccccc1n2C
[14]
  IC50: > 20 µM (inactive)

## O=C(N/N=C/c1cc(Br)cc(Br)c1O)c1ccncc1
[15]
  IC50: 8.52 µM (active)
[16]
  AC50: 2.64 µM (active)
[17]
  EC50: 807 nM (active)
[18]
  EC50: 2.5 µM (active)
[19]
  EC50: > 350 µM (not active)
[20]
  EC50: 24.8 µM (active)
[21]
  IC50: 5.03 µM (active)

## O=C(COc1ccc(CO)cc1Cl)Nc1ccc(F)cc1
[10]
  EC50: > 100 µM (not active)
[12]
  EC50: > 50 µM (not active)

## O=C(O)CN1C(=O)/C(=C\c2cccc(OCc3ccccc3)c2)SC1=S
[22]
  AC50: 4.52 µM (active)
[13]
  IC50: 42.2 µM (active)

## CCN1CCN(Cc2ccc(NC(=O)c3ccc(C)c(NC(=O)c4cc(-c5ccc(Br)cc5)[nH]n4)c3)cc2C(F)(F)F)CC1
[23]
  AC50: 741 nM (active)
[24]
  EC50: 1.53 µM (active)
[25]
  AC50: 3.4 µM (active)
[26]
  EC50: > 30 µM (not active)
[14]
  IC50: > 20 µM (inactive)

## COc1ccc(CSCC(=O)N/N=C/c2ccc(OCC(=O)N3CCCCC3)cc2)cc1
[6]
  IC50: 6.1 µM (active)
[7]
  IC50: 5.86 µM (active)

## CC(Sc1nnc(-c2cccs2)n1Cc1ccccc1)C(=O)NCc1ccc2c(c1)OCO2 (centres undefined)
[1]
  EC50: 9.04 µM (active)

## O=C1NC(=O)N(Cc2ccco2)C(=O)/C1=C\c1cccn1CCOc1ccc(Cl)cc1
[15]
  IC50: 35.7 µM (active)
[21]
  IC50: 5.71 µM (active)
[27]
  CC50: 24.2 µM (active)

## Nc1ccc(-c2nc3c(Cl)cc(N)cc3[nH]2)cc1
[28]
  AC50: 3.76 µM (active)
[29]
  EC50: 210 nM (active)
[30]
  EC50: 7.08 µM (active)
[31]
  EC50: 9.81 µM (active)
[10]
  EC50: < 0.2 µM (active)
[22]
  AC50: 0.556 µM (active)
[12]
  EC50: > 50 µM (not active)
[32]
  IC50: 9.32 µM (active)

## CCSCCNC(=O)c1cc(-n2cnnc2)ccc1Cl
[6]
  IC50: 4.09 µM (active)
[7]
  IC50: 4.2 µM (active)

## COc1ccc(CCNC(=O)C2CCCN(Cc3nc(-c4cccc(Cl)c4)oc3C)C2)cc1OC (centres undefined)
[33]
  AC50: 15.8 µM (inconclusive)
[1]
  EC50: 5.34 µM (active)
[24]
  EC50: 0.145 µM (active)
[26]
  EC50: > 60 µM (not active)
[34]
  AC50: 6.31 µM (inconclusive)

## COC(=O)CCCC[C@H]1SC[C@H]2NC(=O)N[C@]21O
[3]
  IC50: 1.92 µM (active)
[4]
  IC50: 0.389 µM (active)
